According to the supplement of paper PMC10307832:

Assays:
Assay in all cases: relative viability (nuclei count vs DMSO), 5 days (fraction); higher = more cells survive
[1] = compound: CC[C@H](CO)Nc1nc(NCc2ccccc2)c2ncn(C(C)C)c2n1 [Seliciclib]
Procedure, shortened: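 Viability is treated-well nuclei as a fraction of vehicle-well nuclei, reported as the median across plates. Before counting, lung cancer cell lines were kept overnight at 37 °C in 1536-well plates, pinned with five √10-spaced library-drug doses on vehicle-anchored plates, and left 5 days without medium change, then fixed, permeabilised and Hoechst-stained in one step, imaged at 4× and counted by MetaXpress. A plate passed only if control CV was below 25% and at least one doubling occurred.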

[2] = compound: CC[C@H](CO)Nc1nc(NCc2ccccc2)c2ncn(C(C)C)c2n1 [Seliciclib] + CC1(C)CCC(c2ccc(Cl)cc2)=C(CN2CCN(c3ccc(C(=O)NS(=O)(=O)c4ccc(N[C@H](CCN5CCOCC5)CSc5ccccc5)c(S(=O)(=O)C(F)(F)F)c4)cc3)CC2)C1 [Navitoclax] (partner 0.5 µM)
Procedure, shortened: (§1)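 Lung cancer cell lines in 1536-well plates were dosed by pin tool the day after seeding, either with one drug alone or with a fixed anchor-drug dose plus five library-drug doses (not always all listed) in √10 steps. After 5 days, cells were fixed and their nuclei stained in one step (final 0.05% Triton X-100, 1% formaldehyde, 1 ug/ml Hoechst), then counted on 4× images. Relative viability is the nuclei count in treated wells divided by that in vehicle wells. Values are medians of duplicate plates.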

[3] = compound: CC[C@H](CO)Nc1nc(NCc2ccccc2)c2ncn(C(C)C)c2n1 [Seliciclib] + Cc1cc(Nc2cc(N3CCN(C)CC3)nc(Sc3ccc(NC(=O)C4CC4)cc3)n2)n[nH]1 [Tozasertib] (partner 0.1 µM)
Procedure, shortened: as §1

[4] = compound: CC[C@H](CO)Nc1nc(NCc2ccccc2)c2ncn(C(C)C)c2n1 [Seliciclib] + N=C(N)NC(=N)NCCc1ccccc1 [Phenformin] (partner 250 µM)
Procedure, shortened: as §1

Cell Line | relative viability ([1]; 0.08 µM) | relative viability ([1]; 0.253 µM) | relative viability ([1]; 0.8 µM) | relative viability ([1]; 2.53 µM) | relative viability ([1]; 8 µM) | relative viability ([2]; first compound 0.08 µM) | relative viability ([2]; first compound 0.253 µM) | relative viability ([2]; first compound 0.8 µM) | relative viability ([2]; first compound 2.53 µM) | relative viability ([2]; first compound 8 µM) | relative viability ([3]; first compound 0.08 µM) | relative viability ([3]; first compound 0.253 µM) | relative viability ([3]; first compound 0.8 µM) | relative viability ([3]; first compound 2.53 µM) | relative viability ([3]; first compound 8 µM) | relative viability ([4]; first compound 0.08 µM) | relative viability ([4]; first compound 0.253 µM) | relative viability ([4]; first compound 0.8 µM) | relative viability ([4]; first compound 2.53 µM) | relative viability ([4]; first compound 8 µM)
NCI-H2347 | 0.982 | 1.08 | 0.936 | 0.994 | 0.95 | 0.763 | 0.801 | 0.73 | 0.859 | 0.568 | 0.632 | 0.517 | 0.522 | 0.645 | 0.547 | 0.536 | 0.397 | 0.319 | 0.298 | 0.408
NCI-H2405 | 0.919 | 1.02 | 0.976 | 0.804 | 0.872 | 0.666 | 0.71 | 0.754 | 0.717 | 0.631 | 0.753 | 0.797 | 0.762 | 0.602 | 0.601 | 0.362 | 0.399 | 0.319 | 0.324 | 0.355
NCI-H3122 | 0.994 | 0.947 | 0.883 | 0.983 | 0.894 | 1.02 | 1.07 | 1.01 | 1.03 | 0.903 | 0.428 | 0.347 | 0.393 | 0.378 | 0.329 | 0.374 | 0.439 | 0.368 | 0.384 | 0.353
PC-3 [JPC-3] | 1.03 | 1.08 | 0.994 | 0.928 | 0.913 | 0.829 | 0.84 | 0.77 | 0.786 | 0.751 | 0.883 | 0.837 | 0.871 | 0.88 | 0.708 | 0.477 | 0.459 | 0.453 | 0.49 | 0.433
PC-14 | 0.995 | 1.03 | 1.02 | 0.987 | 0.859 | 0.988 | 1.04 | 0.959 | 1.09 | 0.767 | 0.551 | 0.608 | 0.55 | 0.574 | 0.445 | 0.665 | 0.431 | 0.553 | 0.463 | 0.319
RERF-LC-KJ | 0.935 | 0.903 | 0.96 | 0.985 | 0.878 | 0.759 | 0.673 | 0.812 | 0.804 | 0.651 | 0.455 | 0.537 | 0.441 | 0.493 | 0.457 | 0.44 | 0.432 | 0.401 | 0.44 | 0.345
SK-LU-1 | 1.03 | 1.05 | 1.07 | 0.975 | 0.782 | 0.866 | 0.973 | 0.575 | 0.978 | 0.627 | 0.33 | 0.383 | 0.354 | 0.314 | 0.326 | 0.532 | 0.582 | 0.647 | 0.435 | 0.413
SK-MES-1 | 0.999 | 1.03 | 0.942 | 1 | 0.857 | 1.24 | 1.34 | 1.11 | 1.04 | 0.715 | 0.907 | 0.939 | 0.807 | 0.881 | 0.674 | 0.686 | 0.755 | 0.619 | 0.672 | 0.635
SW 1573 | 1.03 | 0.989 | 0.888 | 0.913 | 0.757 | 1.09 | 0.732 | 0.901 | 0.86 | 0.655 | 0.248 | 0.162 | 0.195 | 0.136 | 0.175 | 0.373 | 0.24 | 0.346 | 0.384 | 0.311
UMC-11 | 0.974 | 0.872 | 1.03 | 0.926 | 0.824 | 0.316 | 0.279 | 0.313 | 0.29 | 0.25 | 0.202 | 0.202 | 0.214 | 0.194 | 0.202 | 0.341 | 0.343 | 0.322 | 0.272 | 0.232
